Assay results as given in ChEMBL document CHEMBL5291721, “A preclinical secondary pharmacology resource illuminates target-adverse drug reaction associations of marketed drugs” (Nat Commun, 2023).

Experiments:
[1] = biological target: T1, 5-hydroxytryptamine receptor 1A (Homo sapiens, UniProt P08908); assay type: functional, cell-based
T1 sequence (P08908 whole entry): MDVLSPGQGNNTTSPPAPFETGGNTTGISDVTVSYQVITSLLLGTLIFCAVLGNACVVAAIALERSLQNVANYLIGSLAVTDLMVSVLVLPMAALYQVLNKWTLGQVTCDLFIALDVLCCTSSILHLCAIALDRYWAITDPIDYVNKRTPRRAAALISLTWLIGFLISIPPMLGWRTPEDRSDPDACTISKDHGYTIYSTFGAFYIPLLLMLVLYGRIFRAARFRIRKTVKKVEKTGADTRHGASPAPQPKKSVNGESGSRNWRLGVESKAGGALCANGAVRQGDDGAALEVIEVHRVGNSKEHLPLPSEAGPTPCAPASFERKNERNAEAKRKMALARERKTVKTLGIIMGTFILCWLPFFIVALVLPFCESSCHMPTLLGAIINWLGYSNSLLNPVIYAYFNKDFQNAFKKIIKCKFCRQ

[2] = biological target: T2, Gastrin/cholecystokinin type B receptor (Homo sapiens, UniProt P32239)
T2 sequence (P32239 whole entry): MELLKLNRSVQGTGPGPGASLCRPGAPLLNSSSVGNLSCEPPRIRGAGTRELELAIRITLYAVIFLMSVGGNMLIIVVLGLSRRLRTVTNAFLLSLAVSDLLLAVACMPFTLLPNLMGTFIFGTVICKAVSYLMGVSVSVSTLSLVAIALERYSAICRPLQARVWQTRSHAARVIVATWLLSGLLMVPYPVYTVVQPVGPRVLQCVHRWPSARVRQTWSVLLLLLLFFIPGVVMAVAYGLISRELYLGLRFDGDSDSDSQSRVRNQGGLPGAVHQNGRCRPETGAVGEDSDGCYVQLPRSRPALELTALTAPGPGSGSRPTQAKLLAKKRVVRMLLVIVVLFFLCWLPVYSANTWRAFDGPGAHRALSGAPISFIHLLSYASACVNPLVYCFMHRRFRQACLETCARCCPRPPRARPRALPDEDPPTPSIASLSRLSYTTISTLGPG

Progesterone receptor = biological target: T3, Progesterone receptor (Homo sapiens, UniProt P06401); assay type: functional
T3 sequence (P06401 whole entry): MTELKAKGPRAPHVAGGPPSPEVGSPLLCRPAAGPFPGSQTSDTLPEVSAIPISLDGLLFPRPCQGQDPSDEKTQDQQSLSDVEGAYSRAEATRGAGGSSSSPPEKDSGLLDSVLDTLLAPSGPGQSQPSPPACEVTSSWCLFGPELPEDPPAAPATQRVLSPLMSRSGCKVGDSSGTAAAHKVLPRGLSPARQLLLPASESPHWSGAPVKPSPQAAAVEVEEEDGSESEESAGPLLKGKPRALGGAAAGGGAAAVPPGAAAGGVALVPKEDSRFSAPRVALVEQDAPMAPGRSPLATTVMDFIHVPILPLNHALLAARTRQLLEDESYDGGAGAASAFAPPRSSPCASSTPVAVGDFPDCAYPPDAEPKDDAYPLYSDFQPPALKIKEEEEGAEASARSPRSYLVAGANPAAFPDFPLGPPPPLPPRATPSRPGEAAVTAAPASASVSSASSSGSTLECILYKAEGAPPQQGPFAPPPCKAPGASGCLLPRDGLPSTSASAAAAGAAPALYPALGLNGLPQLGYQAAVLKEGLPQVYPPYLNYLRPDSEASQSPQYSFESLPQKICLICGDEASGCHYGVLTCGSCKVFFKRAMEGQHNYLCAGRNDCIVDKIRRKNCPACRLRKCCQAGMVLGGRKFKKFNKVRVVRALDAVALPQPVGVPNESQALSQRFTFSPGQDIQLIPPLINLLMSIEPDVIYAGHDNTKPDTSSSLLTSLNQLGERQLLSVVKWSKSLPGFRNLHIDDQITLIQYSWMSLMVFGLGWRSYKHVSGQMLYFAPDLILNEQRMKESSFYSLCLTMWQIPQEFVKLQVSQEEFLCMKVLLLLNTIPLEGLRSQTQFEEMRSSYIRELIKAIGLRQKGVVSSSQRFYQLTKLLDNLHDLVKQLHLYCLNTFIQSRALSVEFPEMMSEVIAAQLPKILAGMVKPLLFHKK

[3] = biological target: T4, Beta-2 adrenergic receptor (Homo sapiens, UniProt P07550)
T4 sequence (P07550 whole entry): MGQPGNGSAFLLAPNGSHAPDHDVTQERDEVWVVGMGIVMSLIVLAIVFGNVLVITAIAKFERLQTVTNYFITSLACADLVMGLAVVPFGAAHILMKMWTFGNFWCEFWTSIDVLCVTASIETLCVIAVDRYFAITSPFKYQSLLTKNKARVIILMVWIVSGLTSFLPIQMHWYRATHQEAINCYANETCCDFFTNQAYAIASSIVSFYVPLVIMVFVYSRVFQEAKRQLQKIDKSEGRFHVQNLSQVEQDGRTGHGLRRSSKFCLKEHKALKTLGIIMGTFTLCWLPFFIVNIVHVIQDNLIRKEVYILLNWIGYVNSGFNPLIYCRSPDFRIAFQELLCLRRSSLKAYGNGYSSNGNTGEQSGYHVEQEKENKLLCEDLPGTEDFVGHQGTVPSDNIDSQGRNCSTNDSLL

[4] = biological target: T5, Alpha-1A adrenergic receptor (Homo sapiens, UniProt P35348)
T5 sequence (P35348 whole entry): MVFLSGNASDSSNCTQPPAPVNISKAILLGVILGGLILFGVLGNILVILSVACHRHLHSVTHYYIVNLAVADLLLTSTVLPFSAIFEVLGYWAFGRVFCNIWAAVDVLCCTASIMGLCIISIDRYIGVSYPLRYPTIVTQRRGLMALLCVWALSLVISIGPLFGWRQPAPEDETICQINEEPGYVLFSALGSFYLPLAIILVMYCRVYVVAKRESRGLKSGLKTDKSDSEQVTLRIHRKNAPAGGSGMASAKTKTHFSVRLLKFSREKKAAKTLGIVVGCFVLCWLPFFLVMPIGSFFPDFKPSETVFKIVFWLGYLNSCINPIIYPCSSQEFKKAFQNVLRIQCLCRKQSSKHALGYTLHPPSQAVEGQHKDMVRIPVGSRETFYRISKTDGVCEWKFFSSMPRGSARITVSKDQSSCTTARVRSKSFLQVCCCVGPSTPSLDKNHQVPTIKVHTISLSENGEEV

[5] = biological target: Muscarinic acetylcholine receptor M3 (Homo sapiens, UniProt P20309)
Muscarinic acetylcholine receptor M3, sequence (P20309 whole entry): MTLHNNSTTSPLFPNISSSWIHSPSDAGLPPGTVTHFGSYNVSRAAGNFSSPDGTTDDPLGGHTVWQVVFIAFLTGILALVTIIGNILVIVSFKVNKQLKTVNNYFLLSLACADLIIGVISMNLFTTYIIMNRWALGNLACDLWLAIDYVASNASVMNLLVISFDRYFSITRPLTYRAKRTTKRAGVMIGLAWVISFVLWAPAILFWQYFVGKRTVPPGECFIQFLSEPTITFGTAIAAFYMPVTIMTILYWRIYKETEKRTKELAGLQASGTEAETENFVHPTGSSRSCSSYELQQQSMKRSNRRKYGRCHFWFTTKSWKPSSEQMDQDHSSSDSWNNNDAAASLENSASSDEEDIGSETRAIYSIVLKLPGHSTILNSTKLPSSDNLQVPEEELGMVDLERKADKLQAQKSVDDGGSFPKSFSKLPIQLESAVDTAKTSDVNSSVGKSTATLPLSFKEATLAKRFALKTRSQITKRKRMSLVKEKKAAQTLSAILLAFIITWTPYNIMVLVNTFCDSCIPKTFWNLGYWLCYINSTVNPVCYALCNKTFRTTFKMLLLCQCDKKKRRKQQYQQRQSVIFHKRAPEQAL

[6] = biological target: T4, Beta-2 adrenergic receptor; assay type: functional, cell-based
Also: assay procedure not described here.

Row | Structure (SMILES) | AC50 [1] | AC50 [2] | AC50 (Progesterone receptor) | AC50 [3] | AC50 [4] | AC50 [5] | AC50 [6]
1 | N=C(N)NC(=O)c1nc(Cl)c(N)nc1N [AMILORIDE] | 16 µM | > 30 µM | > 30 µM | > 30 µM | 2.69 µM | – | –
2 | COc1ccc(-c2cc(=S)ss2)cc1 [ANETHOLTRITHION] | > 30 µM | 5.3 µM | – | 13 µM | – | > 30 µM | –
3 | CC(C)(C)NCC(O)COc1ccccc1C#N (centres undefined) [BUNITROLOL] | – | – | – | – | – | > 30 µM | > 30 µM
4 | C[C@]12CCC(=O)C=C1C=C[C@@H]1[C@@H]2CC[C@@]2(C)[C@H]1CC[C@@]21CCC(=O)O1 [CANRENONE] | > 30 µM | > 30 µM | – | > 30 µM | – | > 30 µM | > 30 µM
5 | CN(C)CCC(O)(c1ccccc1)c1ccccc1Cl (centres undefined) [CHLOPHEDIANOL] | – | – | > 10 µM | > 10 µM | 11.8 µM | > 30 µM | –
6 | C[C@]12C=CC(=O)C=C1C(Cl)=C[C@@H]1[C@@H]2[C@@H](O)C[C@@]2(C)[C@H]1CC[C@]2(O)C(=O)CO [CLOPREDNOL] | > 30 µM | > 30 µM | > 3 µM | – | – | > 30 µM | > 30 µM
7 | COc1cccc2c1C(=O)c1c(O)c3c(c(O)c1C2=O)C[C@@](O)(C(=O)CO)C[C@@H]3O[C@H]1C[C@H](N)[C@H](O)[C@H](C)O1 [DOXORUBICIN] | – | > 30 µM | > 30 µM | > 10 µM | > 10 µM | – | > 30 µM
8 | C[C@]12CCC(=O)C=C1[C@@H]1C[C@@H]1[C@H]1[C@@H]3[C@@H]4C[C@@H]4[C@@]4(CCC(=O)O4)[C@@]3(C)CC[C@@H]12 [DROSPIRENONE] | – | > 30 µM | – | > 30 µM | – | > 30 µM | –
9 | CC(C)(Oc1ccc(Cl)cc1)C(=O)OCCOC(=O)c1cccnc1 [ETOFIBRATE] | – | > 30 µM | > 30 µM | > 30 µM | – | > 30 µM | > 30 µM
10 | CCn1c(=O)c2c(nc(/C=C/c3ccc(OC)c(OC)c3)n2C)n(CC)c1=O [ISTRADEFYLLINE] | – | – | > 30 µM | – | – | – | –
11 | COc1ccc(C(=O)c2ccccc2)c(O)c1 [OXYBENZONE] | – | – | – | – | – | > 30 µM | > 30 µM
12 | C[C@]12C=CC(=O)C=C1CC[C@@H]1[C@@H]2[C@@H](O)C[C@@]2(C)[C@H]1CC[C@]2(O)C(=O)CO [PREDNISOLONE] | > 10 µM | > 30 µM | – | > 10 µM | > 10 µM | – | > 30 µM
13 | CCC(=O)c1ccc2c(c1)N(CC(C)N(C)C)c1ccccc1S2 (centres undefined) [PROPIOMAZINE] | 2.7 µM | – | > 30 µM | > 10 µM | 0.0294 µM | 0.18 µM | –
14 | CN(C)[C@@H]1C(O)=C(C(=O)NCN2CCCC2)C(=O)[C@@]2(O)C(O)=C3C(=O)c4c(O)cccc4[C@@](C)(O)[C@H]3C[C@@H]12 [ROLITETRACYCLINE] | > 30 µM | – | > 30 µM | > 10 µM | > 10 µM | > 10 µM | –
15 | Cc1ccc(O)c([C@H](CCN(C(C)C)C(C)C)c2ccccc2)c1 [TOLTERODINE] | > 10 µM | – | – | – | 2.74 µM | – | –
16 | CC1(C)O[C@@H]2C[C@H]3[C@@H]4CCC5=CC(=O)C=C[C@]5(C)[C@@]4(F)[C@@H](O)C[C@]3(C)[C@]2(C(=O)CO)O1 [TRIAMCINOLONE ACETONIDE] | > 30 µM | > 30 µM | – | – | – | – | –
17 | Oc1cc(Cl)ccc1Oc1ccc(Cl)cc1Cl [TRICLOSAN] | – | > 30 µM | 18 µM | – | – | > 30 µM | > 30 µM
